The values that follow come from patent US10640466B2, “Anthracene based compounds and their uses” (UNIVERSITY OF HERTFORDSHIRE HIGHER EDUCATION CORPORATION, priority 2015, dated 2020).

Data set [1] has as its system BxPC-3 cells. Kind of data set: MTS cell proliferation assay, BxPC-3. In kind it is cell-based, Human. The following applies: for anti-proliferative effect on BxPC-3: 1 and 10 μM. As to the method:
(§1) FIG. 3 illustrates the anti-proliferative effect of cromolyn on pancreatic cancer cells. FIG. 3A illustrates BxPC-3, and FIG. 3B illustrates Panc-1 cells. Cells were seeded overnight (10^4 cells/well) in 96 well plates in complete medium supplemented with 10% v/v FBS, 2 mM L-glutamine and 200 U Penicillin/Streptomycin solution. Compounds were serially diluted into the wells and cell proliferation assessed using MTS assay after 24, 48, and 72 hours. Results are expressed as mean±SEM with n=4. P value of <0.05 (*), <0.01 (**), <0.001 (***) and <0.0001 (****) was determined relative to control using 2-Way ANOVA. Post-test comparisons were made using Bonferroni test at 95% confidence interval;
FIG. 4 illustrates the anti-proliferative effects of compounds 2 (A), 3 (B), 8 (C), 26 (D) and 7 (E) on BxPC-3 cells. BxPC-3 cells were seeded overnight (10^4 cells/well) in 96-well plates in complete RPMI-1640 medium supplemented with 10% v/v FBS, 2 mM L-glutamine and 200 U Penicillin/Streptomycin solution. Compounds were serially diluted into the wells and cell proliferation assessed using MTS assay after 24, 48, and 72 hours. Results are expressed as mean±SEM with n=4. P value of <0.05 (*), <0.01 (**), <0.001 (***) and <0.0001 (****) was determined relative to control using 2-Way ANOVA. Post-test comparisons were made using Bonferroni test at 95% confidence interval;
(§2) All reagents for in vitro studies were purchased from Sigma Aldrich (Dorset, UK) unless otherwise specified. Human pancreatic cancer cells, Panc-1 (ATCC® CRL-1469™) and BxPC-3 (ATCC® CRL-1687™), were purchased from LGC Standards (LGC Ltd., Middlesex, UK). Both were cultured in their respective culture medium—Dulbecco Modified Eagle Medium (DMEM) for Panc-1 and RPMI-1640 for BxPC-3 supplemented with 10% v/v Foetal Bovine Serum (FBS), 200U Penicillin/Streptomycin solution, and 2 mM L-glutamine. Both cells were maintained at 37° C. in a 5% humidified CO2 atmosphere and passaged at least three times a week when they have reached about 70% confluency using a standardised trypsinisation protocol. Cromolyn was purchased as a sodium salt while compounds 2, 3, 7, 8 and 26 were synthesised, characterised and purified at the University of Hertfordshire. To prepare stock concentrations (10 mM), cromolyn was dissolved in distilled water while compounds 2, 3, 7, 8 and 26 were dissolved in DMSO.
(§3) Pancreatic cancer cells (1×10^5 cells/mL) in 100 μL complete cell culture medium were plated in 96-well plates (Sigma-Aldrich, Poole, UK) and incubated overnight at 37° C., 5% CO2 atmosphere. Cromolyn and compounds 2, 3, 7, 8 and 26 were prepared from stocks of 10 mM in serum-free medium and serially diluted to give 1, 10, 100 and 1000 μM. Control samples for this study included cells without any drugs, cell samples with DMSO at the corresponding concentration(s) and media-only samples. Cells were incubated with test compounds for 24, 48 and 72 h. At each time point i.e. 24, 48 and 72 h, CellTiter 960 AQueous Non-Radioactive Cell Proliferation Assay (MTS) (Promega, UK) was added to each well (1:5). Plates were incubated for 90 minutes before reading the absorbance at 492 nm using a Multiskan Ascent 96/384 plate reader (Thermo Scientific, Loughborough, UK). The experiments were repeated three times.
For data analysis, background noise (media only wells) was subtracted from all wells. DMSO absorbance at 1, 10, 100 and 1000 μM was subtracted from wells with sample compounds before an average of all four replicates was taken. Data is plotted as mean from three repeats ±SEM with p value set at 0.05.

The nature of data set [2]: Solubility in the culture media of the proliferation assay. In kind it is physicochemical. As to conditions: at 100 μM and above. As to the method: as §3
In a further data set the target is T1, S100P/RAGE function (Homo sapiens, UniProt P25815).
T1 sequence (P25815 1-95): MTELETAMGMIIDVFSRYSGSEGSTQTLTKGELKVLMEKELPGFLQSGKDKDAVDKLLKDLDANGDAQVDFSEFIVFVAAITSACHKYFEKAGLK
As to conditions: in vitro studies; cited from earlier work.

Data set [3] relates to Panc-1 cells. Kind of data set: MTS cell proliferation assay, Panc-1. In kind it is cell-based, Human. As to the method:
as §1
FIG. 5 illustrates anti-proliferative effect of compounds 2 (A), 3 (B), 8 (C), 26 (D) and 7 (E) on Panc-1 cells. Panc-1 cells were seeded overnight (10^4 cells/well) in 96-well plates in complete DMEM medium supplemented with 10% v/v FBS, 1% v/v L-glutamine and 200 U Penicillin/Streptomycin solution. Compounds were serially diluted into the wells and cell proliferation analysed using MTS assay after 24, 48, and 72 hours. Results are expressed as mean±SEM with n=4. P value of <0.05 (*), <0.01 (**), <0.001 (***) and <0.0001 (****) was determined relative to control using 2-Way ANOVA. Post-test comparisons were made Bonferroni test at 95% confidence interval; and
as §2, with “To prepare stock concentrations (10 mM), cromolyn was dissolved in distilled water while compounds 2, 3, 7, 8 and 26 were dissolved in DMSO.” left out
Pancreatic cancer cells (1×10^5 cells/mL) in 100 μL complete cell culture medium were plated in 96-well plates (Sigma-Aldrich, Poole, UK) and incubated overnight at 37° C., 5% CO2 atmosphere. […] Plates were incubated for 90 minutes before reading the absorbance at 492 nm using a Multiskan Ascent 96/384 plate reader (Thermo Scientific, Loughborough, UK). […]
For data analysis, background noise (media only wells) was subtracted from all wells. DMSO absorbance at 1, 10, 100 and 1000 μM was subtracted from wells with sample compounds before an average of all four replicates was taken. […]
(In general: Formazan colour is commonly taken as a measure of viable cells.)

The subject of data set [4] is BxPC-3 cells. Kind of data set: Matrigel invasion assay, BxPC-3. In kind it is cell-based, Human. As to conditions: 48 h. The procedure: FIG. 2 illustrates the effect of 2 and cromolyn (100 μM) BxPC-3 invasion. FIG. 2A illustrates the results when compound 2 was added to serum-free medium in the upper compartment of Matrigel invasion chamber along with the BxPC-3 cells; while media with 10% serum was added to lower chamber. After 48 hours, cells that had invaded onto the lower surface of the membrane were stained using Giemsa stain and cells in 5 different fields were counted for invasion studies. Results are expressed as the mean±SEM. P value of <0.05 (*), <0.01 (**) and <0.001 (***) was determined relative to control using 2-Way ANOVA. Photographs of representative membranes for cells after Giemsa staining when the cells were exposed in FIGS. 2B, 2C, 2D and 2E;
(§4) Compound 2 was one of seventeen compounds from the virtual screen that were subjected to a Matrigel invasion assay (Corning®, USA) screening against BxPC-3 and Panc-1 pancreatic cancer cells.
All reagents for in vitro studies were purchased from Sigma Aldrich (Dorset, UK) unless otherwise specified. Human pancreatic cancer cells, Panc-1 (ATCC® CRL-1469™) and BxPC-3 (ATCC® CRL-1687™), were purchased from LGC Standards (LGC Ltd., Middlesex, UK). Both were cultured in their respective culture medium—Dulbecco Modified Eagle Medium (DMEM) for Panc-1 and RPMI-1640 for BxPC-3 supplemented with 10% v/v Foetal Bovine Serum (FBS), 200U Penicillin/Streptomycin solution, and 2 mM L-glutamine. […]
(§5) Matrigel invasion assay were carried out using transwell inserts with 8-μm pore size (BD-Bioscience, Oxford, UK) and Biocoat Matrigel Invasion plates (BD-Bioscience, Oxford, UK). […] The number of cells from five adjacent fields of view from each of the membranes were counted at a ×10 magnification to obtain the average number of cells per field. Data are expressed as the percent invasion through the Matrigel matrix and membrane relative to the invasion through the control membrane.

For data set [5] the following is noted: in vivo; cited from earlier work.
The test system of data set [6] is Panc-1 cells. Kind of data set: Matrigel invasion assay, Panc-1. The following applies: data not shown. The class given is cell-based, Human. As to the method: as §4
as §2, with “Cromolyn was purchased as a sodium salt while compounds 2, 3, 7, 8 and 26 were synthesised, characterised and purified at the University of Hertfordshire. To prepare stock concentrations (10 mM), cromolyn was dissolved in distilled water while compounds 2, 3, 7, 8 and 26 were dissolved in DMSO.” left out
as §5

A further data set addresses T2, S100P binding to RAGE (Homo sapiens, UniProt P25815).
T2 sequence (P25815 1-95): T1 sequence (P25815 1-95)
Kind of data set: S100P/RAGE functional assay (ELISA of S100P-RAGE binding). The following applies: initial results. The procedure: FIGS. 6A to 6H illustrate the effect of drugs on the binding between 1 μM S100P and 30 nM RAGE in ELISA assay wherein n=3 from one plate.
ELISA assay of S100P-RAGE binding was carried out using the method of Padilla et al. (Padilla, L., Dakhel, S., & Hernandez, J. (2014). S100 to receptor for advanced glycation end-products binding assay: Looking for inhibitors. Biochemical and Biophysical Research Communications, 446(1), 404-409. doi:10.1016/j.bbrc.2014.02.143). FIGS. 6A to 6H illustrate the effect of drugs on the binding between 1 μM S100P and 30 nM RAGE in ELISA assay wherein n=3 from one plate.
For orientation: In an ELISA, binding on a coated surface is turned into a signal by an enzyme label.

Data set [7] concerns BxPC-3 cells. Description: Trypan blue counting of BxPC-3 cells. The class given is cell-based, Human. As to conditions: 1 μM.
Setting [8] is: except at the higher concentration of 1000 μM.

Turning to `CCOC(=O)c1cccc(N2C(=O)C3C4c5ccccc5C([N+](=O)[O-])(c5ccccc54)C3C2=O)c1` (centres unmarked) [Compound 3, Ethyl 3-(9-nitro-12,14-dioxo-9,10-dihydro-9,10-[3,4]epipyrroloanthracen-13-yl)benzoate], the “anti-proliferative effect on BxPC-3 compared to 2” value in the data set with BxPC-3 cells [1] (after 24 h) is listed as “more pronounced anti-proliferative effect”. Also, the “state of BxPC-3 cells compared to the control” value in the data set on BxPC-3 cells [1] (after 48 h) is “the cells appear to be recovering albeit only slightly”. Further, the “solubility issues in the culture media” value in [2] is recorded as “precipitating in the culture media”.
As for 5-methyl cromolyn, the “concentration inhibiting S100P/RAGE function” value at S100P/RAGE function is reported as 100 nmol/L.
Regarding `O=C(O)c1cccc(N2C(=O)C3C4c5ccccc5C(c5ccccc54)C3C2=O)c1` (centres unmarked) [Compound 26, 3-(12,14-Dioxo-9,10-dihydro-9,10-[3,4]epipyrroloanthracen-13-yl)benzoic acid], the “anti-proliferative effect on BxPC-3” value in the data set on BxPC-3 cells [1] is “inhibited proliferation”. Further, in the data set with Panc-1 cells [3], the “anti-proliferation effect on Panc-1 cells” value (“anti-proliferation effect” below) is reported as “inhibition was unfortunately observed”.
As to `O=C1C2C3c4ccccc4C([N+](=O)[O-])(c4ccccc43)C2C(=O)N1c1ccccc1` (centres unmarked) [Compound 7, 9-Nitro-13-phenyl-9,10-dihydro-9,10-[3,4]epipyrroloanthracene-12,14-dione], the “anti-proliferative effect on BxPC-3” value in the data set on BxPC-3 cells [1] is on record as “inhibited proliferation”. In addition, the “anti-proliferation effect” value in the data set with Panc-1 cells [3] is given as “inhibition was unfortunately observed”. Besides, the “solubility issues in the culture media” value in data set [2] is listed as “precipitating in the culture media”.
On to `O=C(O)c1cc(=O)c2c(OCC(O)COc3cccc4oc(C(=O)O)cc(=O)c34)cccc2o1` [cromolyn, reference compound], for which the “effect against the proliferation of BxPC-3 cells” value with BxPC-3 cells [1] (setting [8]) was “no significant effect”. Besides, the “reduction in invasion of BxPC-3 cells across the Matrigel matrix” value in the data set with BxPC-3 cells [4] (100 μM) was found to be 20%. In addition, the bioavailability result in data set [5] is “low bioavailability”. For the same molecule, the “effect against the proliferation of Panc-1 cells” value with Panc-1 cells [3] (setting [8]) was “no significant effect”.
In the case of `O=C(O)c1cccc(N2C(=O)C3C4c5ccccc5C([N+](=O)[O-])(c5ccccc54)C3C2=O)c1` (centres unmarked) [Compound 2, 3-(9-Nitro-12,14-dioxo-9,10-dihydro-9,10-[3,4]epipyrroloanthracen-13-yl)benzoic acid], in the data set with BxPC-3 cells [1] (all three concentrations, after 72 h, p<0.001), the “inhibition of growth of BxPC-3 relative to control” value was “noticeable inhibition of growth”. The entries for the “reduction in invasion of BxPC-3 cells across the Matrigel matrix” value in the data set with BxPC-3 cells [4] (100 μM) and in the data set with BxPC-3 cells [4] (500 μM) were 17% and 100%, respectively. In addition, the “effect on invasion of Panc-1 cells” value in the data set on Panc-1 cells [6] is “No effect”. The “anti-proliferation effect” value in the data set on Panc-1 cells [3] is “a similar effect was also observed”.
With `O=C(O)c1ccc(N2C(=O)C3C4c5ccccc5C([N+](=O)[O-])(c5ccccc54)C3C2=O)cc1` (centres unmarked) [Compound 8, 4-(9-Nitro-12,14-dioxo-9,10-dihydro-9,10-[3,4]epipyrroloanthracen-13-yl)benzoic acid], in the data set with BxPC-3 cells [1] (1 μM), the “metabolic activity of BxPC-3 cells” value was “no metabolic activity was observed”. Moreover, the “anti-proliferative effect on BxPC-3” value in the data set on BxPC-3 cells [1] was “more pronounced”. Moreover, the “inhibition of S100P binding to RAGE” value at S100P binding to RAGE is “nanomolar inhibition”. The “viability of BxPC-3 cells by trypan blue counting” value in the data set on BxPC-3 cells [7] is reported as “still viable”. Further, in data set [2], the “solubility issues in the culture media” value is on record as “precipitating in the culture media”.
